Patent US12146196B2, “C-RAF mutants that confer resistance to RAF inhibitors” (DANA-FARBER CANCER INSTITUTE, INC., priority 2012, dated 2024)
Values belong to the molecule of their own block, whether it stands above or below them.

What was measured:
pMek1/2, pErk1/2 = test: Immunoblot of pMek/pErk in A375 cells expressing C-RAF alleles; assay type: cell-based, human
Description: (§1) Samples were extracted after washing twice with PBS and lysed with 150 mM NaCl, 50 mM Tris pH 7.5, 1 mM EDTA, PMSF, Sodium Fluoride, Sodium Orthovanadate and protease inhibitor cocktail in the presence of 1% NP-40. The protein content was estimated with protein assay reagent (Bio-Rad) according to the manufacturer's instructions. Equal amounts of whole cell lysates were loaded onto and separated by 8-16% SDS-PAGE ready-made gels. Proteins were transferred to polyvinylidene difluoride membranes in a Trans-Blot apparatus. Membranes were blocked with 5% skim milk in TBS containing 0.1% Tween 20 for 1 h at room temperature or overnight at 4° C. Membranes were then incubated with monoclonal or polyclonal antibody raised against the protein of interest for 1 h at room temperature or overnight at 4° C. followed by three washes with TBS containing 0.1% Tween 20. The immunoreactivity of the primary antibodies C-RAF, S259C-RAF, S338C-RAF, S621C-RAF, PERK, ERK, pMEK, MEK, 14-3-3ζ Flag (Cell Signaling), B-RAF (Santa Cruz Biotechnology) and actin (Sigma) was visualized with a secondary anti-rabbit (BD Transduction Laboratories) or anti-mouse (Santa Cruz Biotechnology) antibodies conjugated with horseradish peroxidase and subsequent development with ECL Plus (Amersham Biosciences) and autoradiography on X-OMAR TAR films. The bands were scanned and quantified by the Gel Doc system using the Quantity One software.

[1] = tested on: A375 cells expressing C-RAF resistance allele P261T; test: Pharmacologic growth inhibition assay, P261T cells; assay type: cell-based, human; conditions: for increase of GI50 values compared to the WT: A375 expressing C-RAF P261T vs WT-C-RAF
Description: (§2) GI50 values were calculated by determining the slope of the line connecting the data points that flanked the 50% point.

[2] = tested on: A375 cells expressing C-RAF resistance allele S257P; test: Pharmacologic growth inhibition assay, S257P cells; assay type: cell-based, human; conditions: for increase of GI50 values compared to the WT: A375 expressing C-RAF S257P vs WT-C-RAF
Description: as §2

[3] = tested on: A375 cells expressing C-RAF resistance allele G361A; test: Pharmacologic growth inhibition assay, G361A cells; assay type: cell-based, human; conditions: A375 expressing C-RAF G361A vs WT-C-RAF
Description: as §2

C-RAF (S259, S338, S621) = test: Immunoblot of C-RAF phosphorylation sites S259, S338, S621; assay type: cell-based, human; conditions: for S259 phosphorylation: A375 expressing resistance mutants
Description: as §1

[4] = tested on: A375 cells expressing WT-C-RAF; test: Pharmacologic growth inhibition assay, WT-C-RAF cells; conditions: Homo sapiens, A-375, 96 h
14-3-3/C-RAF interaction [5] = test: Immunoprecipitation with C-RAF, bound 14-3-3ζ; assay type: cell-based, human
Description: (§3) (A) 293/T cells transiently expressing the indicated C-RAF resistance mutants in the absence (−) or presence (+) of 2 μM vemurafenib for 1 h were immunoprecipitated with C-RAF and levels of bound protein (B-RAF and 14-3-3 ζ) (upper panels) was assessed by immunoblotting. Input lysate (lower panels) show 14-3-3 ζ, B-RAF, C-RAF, pMek1/2, pErk1/2, Mek, S338 C-RAF and actin. Results are representative of more than two independent experiments. (B) A375 cells stably expressing the indicated C-RAF resistance mutants in the presence and absence of 2 μM vemurafenib for 16 h were immunoprecipitated with C-RAF and levels of bound protein (B-RAF and 14-3-3 ζ) (upper panels) was assessed by immunoblotting. Input lysate was blotted for the same as in FIG. 7A. Results are representative of more than two independent experiments.
(§4) For immunoprecipitation with C-RAF antibody (BD Biosciences) protein G-Sepharose slurry (Thermo Scientific) was washed with 1×PBS and incubated with C-RAF antibody (BD Biosciences) or normal mouse IgG (control) for 1 h at 4° C. After three washes with lysis buffer, the beads were incubated with whole cell lysates (0.5 mg of total protein) for 2 h and then washed three times with lysis buffer. The proteins were then eluted by boiling in 1×SDS-sample buffer.

14-3-3/C-RAF interaction [6] = biological target: T1, 14-3-3/C-RAF interaction (Homo sapiens, UniProt P04049); test: Immunoprecipitation with C-RAF, bound 14-3-3ζ; assay type: cell-based; conditions: A375 cells (BRAF V600E)
T1 construct: expressed in transfected cells; 14-3-3 ζ endogenous
Description: as §3, §4

C-RAF resistance mutants [7] = test: C-RAF kinase assay (A375); assay type: biochemical, human; conditions: A375 expressing S257P, P261T and G361A; exposure to 2 μM vemurafenib
Description: (§5) A375 cells infected with WT and mutant C-RAF alleles were cultured in the absence and presence of PLX4032 (Allele Biotech) for 16 h. Lysates were prepared with 150 mM NaCl, 50 mM Tris pH 7.5, 1 mM EDTA, PMSF, Sodium Fluoride, Sodium Orthovanadate and protease inhibitor cocktail in the presence of 1% NP-40. Immunoprecipitation with C-RAF antibody was performed overnight and bound beads were washed three times with lysis buffer, followed by kinase buffer (1×). […] The phosphorylated substrate MEK was detected by immunoblotting.

C-RAF resistance mutants [8] = biological target: T2, C-RAF resistance mutants (Homo sapiens, UniProt P04049, G361A); test: C-RAF kinase assay (A375); assay type: biochemical; conditions: A375 expressing G361A; Vemurafenib 16 h
T2 construct: expressed in transfected cells
Description: as §5

C-RAF resistance mutants [9] = test: C-RAF kinase assay (293T); assay type: biochemical, human; conditions: 293T cells treated with 2 μM vemurafenib prior to assay; all resistance alleles examined
Description: The 293T cells (70% confluent) were transfected with 6 μg pc-DNA with His or V5 tag towards the C-terminal containing C-RAF-WT and C-RAF variant alleles. Cells were treated with vemurafenib (Allele Biotech) for 1 h and 48 h post-transfection, lysates were extracted by general protocol. Immunoprecipitation using cobalt beads was performed […] for 1 hr at 4° C. […] The phosphorylated MEK product was detected by immunostaining using a p-MEK antibody (Cell Signaling Technology), and relative p-MEK signals were quantified using densitometry, normalized to the amount of input C-RAF, and compared to C-RAF-WT as a reference.

[10] = biological target: B-RAF/C-RAF heterodimerization (Homo sapiens, UniProt P04049+P15056, V600E); test: Immunoprecipitation with C-RAF, bound B-RAF; assay type: cell-based; conditions: A375 melanoma cells, wild-type C-RAF; 2 μM
[11] = tested on: B-RAF/C-RAF heterodimerization; test: Immunoprecipitation with C-RAF, bound B-RAF; assay type: cell-based, human
p-MEK, p-ERK = test: Immunoblot of MEK/ERK signaling in 293T cells expressing C-RAF resistance mutants; assay type: cell-based, human; conditions: 2 μM
Description: as §1, with “The immunoreactivity of the primary antibodies C-RAF, S259C-RAF, S338C-RAF, S621C-RAF, PERK, ERK, pMEK, MEK, 14-3-3ζ Flag (Cell Signaling), B-RAF (Santa Cruz Biotechnology) and actin (Sigma) was visualized with a secondary anti-rabbit (BD Transduction Laboratories) or anti-mouse (Santa Cruz Biotechnology) antibodies conjugated with horseradish peroxidase and subsequent development with ECL Plus (Amersham Biosciences) and autoradiography on X-OMAR TAR films.” left out

C-RAF homodimer = test: C-RAF homodimerization, Ni2+ bead pull-down of His-tagged C-RAF, anti-Flag immunoblot; assay type: cell-based, human; conditions: 293T cells expressing C-RAF resistance mutants; 2 μM, 1 h
Description: (A) 293T cells co-expressing His/V5-tagged and Flag-tagged C-RAF resistance mutants for 48 h were immunoprecipitated with Nickel (see Methods) to pull down His-tagged C-RAF, and Flag tagged C-RAF was assessed by immunoblotting. Input lysate was also assessed using antibodies that detected Flag-C-RAF, V5-C-RAF, total C-RAF, p-MEK, p-ERK and total ERK. (B) 293T cells co-expressing His/V5-tagged and Flag-tagged C-RAF resistance mutants were treated with either vehicle (DMSO) or 2 μM of vemurafenib for 1 h, and His/V5-tagged C-RAFwas immunoprecipitated as in (A) above. Input lysates were immunoblotted using antibodies recognizing C-RAF (S338), p-MEK, p-ERK, and actin (loading control). (C) In vitro C-Raf kinase activity was measured in cell extracts derived from 293T cells transiently expressing Flag-tagged empty vector (“C”), wild type C-RAF (“WT”), and C-RAF harboring the resistance mutants S257P, P261T, G361A and E478K. Assays were performed in the presence or absence of 2 μM vemurafenib (see Methods). […] (D) In vitro C-Raf kinase activity was measured in cell extracts derived from A375 cells (B-RAF^V600E) (“C”) and A375 stably expressing wild type C-RAF (“WT”), and C-RAF harboring the resistance mutants S257P, P261T, and G361A in the presence and absence of 2 μM vemurafenib. […]

[12] = A375 expressing S257P, P261T and G361A, PLX4720 2 μM 16 h

increase of GI50 values compared to the WT [1]: ~30,000 fold | increase of GI50 values compared to the WT [2]: ~10,000 fold | increase of GI50 values / resistance compared to the WT [3]: 20 fold
SMILES: COC(=O)N[C@@H](C)CNc1nccc(-c2cn(C(C)C)nc2-c2cc(Cl)cc(NS(C)(=O)=O)c2F)n1 [(S)-methyl 1-(4-(3-(5-chloro-2-fluoro-3-(methylsulfonamido)phenyl)-1-isopropyl-1H-pyrazol-4-yl)pyrimidin-2-ylamino)propan-2-ylcarbamate]
biochemical resistance (pMek/pErk) (pMek1/2, pErk1/2; 1 μM, A375 expressing C-RAF resistance mutants): conferred resistance

SMILES: Cn1cnc2c(F)c(Nc3ccc(Br)cc3Cl)c(C(=O)NOCCO)cc21 [AZD6244]
pErk (pMek1/2, pErk1/2; A375 expressing resistance mutants, AZD6244 1 μM 16 h): diminishing levels | S259 phosphorylation (C-RAF (S259, S338, S621); AZD6244 1 μM 16 h): attenuated

increase of GI50 values compared to the WT [1]: ~100 fold | increase of GI50 values compared to the WT [2]: ~100 fold | GI50 [4]: 400 nM | increase of GI50 values / resistance compared to the WT [3]: 30 fold
SMILES: CCCS(=O)(=O)Nc1ccc(F)c(C(=O)c2c[nH]c3ncc(Cl)cc23)c1F [PLX4720]
Mek phosphorylation (pMek) and Erk phosphorylation (pErk) (pMek1/2, pErk1/2; 2 μM, A375 cells and WT-C-RAF expressing cells): attenuated | pMek and pErk (pMek1/2, pErk1/2; 2 μM, A375 expressing C-RAF resistance alleles): sustained pMek and pErk | p-MEK (pMek1/2, pErk1/2; A375 expressing CRAF G361A, high PLX4720 concentrations): substantial “paradoxical” activation | phosphorylation of S338 (C-RAF (S259, S338, S621); [12]): induced | phosphorylation of S621 (C-RAF (S259, S338, S621); [12]): modest increase | S259 phosphorylation (C-RAF (S259, S338, S621); PLX4720): induced

GI50 [4]: 400 nM | increase of GI50 values / resistance compared to the WT [3]: 50 fold | 14-3-3ζ binding to wild-type C-RAF (14-3-3/C-RAF interaction [6]): modestly decreased | C-RAF kinase activity (C-RAF resistance mutants [7]): further augmented | C-RAF kinase activity in presence of the drug (C-RAF resistance mutants [8]): even higher kinase activity | C-RAF kinase activity (p-MEK) (C-RAF resistance mutants [9]): marked up-regulation | B-RAF/C-RAF heterodimerization [10]: abrogated
SMILES: CCCS(=O)(=O)Nc1ccc(F)c(C(=O)c2c[nH]c3ncc(-c4ccc(Cl)cc4)cc23)c1F [Vemurafenib]
resistance in growth inhibition ([1]; A375 expressing C-RAF P261T): increased resistance | resistance in growth inhibition ([2]; A375 expressing C-RAF S257P): increased resistance | 14-3-3/C-RAF interactions (14-3-3/C-RAF interaction [5]; 293/T cells): enhanced | 14-3-3ζ binding to C-RAF S257P, P261T and G361A mutants (14-3-3/C-RAF interaction [5]; A375 cells (BRAF V600E)): no effect | B-RAF/C-RAF heterodimerization ([11]; 293/T cells ectopically expressing wild-type C-RAF, 2 μM): induced | B-RAF heterodimerization ([11]; A375 cells expressing the most robust C-RAF resistance mutants, in the presence of drug): sustained | MEK/ERK activation (p-MEK, p-ERK; 293/T cells, C-RAF G361A co-expressed with dimerization-deficient R401H double mutant, 1 hr): further induced | downstream MEK/ERK signaling (p-MEK, p-ERK; 293T cells expressing C-RAF resistance mutants, 1 h): robustly induced | C-RAF dimerization (C-RAF homodimer): sustained but not further enhanced | C-RAF activation (S338 phosphorylation) (C-RAF (S259, S338, S621); 293T cells expressing C-RAF resistance mutants, 2 μM, 1 h): robustly induced
